Results: patent publication US12414559B2, “Mixtures and compositions comprising 5-fluoro-4-imino-3-methyl-1-tosyl-3,4-dihydropyrimidin-2-one, and methods of use thereof” (Adama Makhteshim Ltd., priority 2018, dated 2025)

Experiment: Chemical stability on storage: concentration / degradation of compound of Formula I in the composition
Assay type: physicochemical
Conditions: after 8 weeks of storage at 40° C.
Excerpt: As used herein, the term “stable” when used in connection with chemical stability, e.g, chemically stable, means that the composition meets the chemical stability standards set forth by the Food and Agriculture Organization of the United Nations (FAO) in the Manual on Development and Use of FAO and WHO Specification for Pesticides (First Edition—Third Revision) (the “FAO/WHO Manual”) (available at http://www.fao.gov/agriculture/crops/thematic-sitemap/theme/pests/jmps/manual/en/), the entire content of which is hereby incorporate by reference into the subject application. […] The amount of degradation permitted before the degradation is considered to be significant depends on the concentration of the active ingredients in the composition.
The physical and chemical stability of composition of Example were tested under various conditions including CIPAC conditions.

- degradation of the compound of Formula I (with Attagel 50 (0.5% by weight) and Bentone SD-1 (0.5% by weight)): 4%
- degradation of the compound of Formula I (without Attagel 50 and Bentone SD-1): 7-8%
Structure (SMILES): Cc1ccc(S(=O)(=O)n2cc(F)c(=N)n(C)c2=O)cc1 [compound of Formula I, 5-fluoro-4-imino-3-methyl-1-tosyl-3,4-dihydropyrimidin-2(1H)-one]
